pIC50: −log10 of the molar value.
What was measured:
BRD4-BD1 = BRD4-BD1 (Homo sapiens (Human), UniProt O60885); experiment: AlphaLisa bromodomain binding assay, BRD4-BD1; conditions: Table 6; read-out: BRD4(1) IC50
BRD4-BD2 = BRD4-BD2 (Homo sapiens (Human), UniProt O60885); experiment: AlphaLisa bromodomain binding assay, BRD4-BD2; conditions: Table 6; read-out: BRD4(2) IC50
Source text: (§1) An AlphaLisa assay was used to observe bromodomain binding and measure IC50s for the compounds disclosed herein. An AlphaLisa assay is a bead-based assay used to detect interactions between bromodomains and polyacetylated histone peptides. Donor and acceptor beads bound to target and ligand are brought into proximity by this protein-protein interaction.
(§2) Equipment Required • 1. […] Plate centrifuge • 3. Plate shaker • 4. […] Single channel and multi-channel pipettes • 6. Microplate reader (Pherastar)
(§3) Stock and Final Assay Concentrations (FAC) • 1. All reference and test compounds are made at a concentration of 10 mM in DMSO. Compounds are serially diluted in DMSO and a FAC starting from 10 μM to 10 point 3 fold serial dilutions is arrived. FAC of DMSO is 1%. • 2. Enzyme stock and FAC
(§4) Biotinylated substrate (Acetylated histone H4, biotinylated substrate—cat no. AS64989-025, Anaspec) stock and FAC
(§5) • 4. Acceptor and donor beads stock and FAC
(§6) Buffers • For the enzyme and substrate dilution following buffer is used (for 50 ml) • HEPES: 50 mM 2.5 ml • NaCl: 25 mM 1.25 ml • DTT: 10 mM 0.05 ml • BSA: 0.1% 0.05 g • MilliQ water: 45.7 ml • For dilution of acceptor and donor beads AlphaLISA 5× epigenetics Buffer Perkin Elmer (Cat: AL008C) is used at 1× concentration.
(§7) Procedure • 1. […] Tap the plate gently • 3. […] Cover with plate sealer • 5. […] Incubate the plate at room temperature for 10 minutes • 7. Add 10 μl of the substrate • 8. Cover with plate sealer • 9. […] Cover with plate sealer • 14. […] Cover with plate sealer • 18.
(§8) The percent inhibition is calculated in the excel analysis template and the IC50 values are subsequently determined using a sigmoidal dose-response curve (variable slope) using GraphPad Prism® 5 software.

BRD2-BD1 = BRD2-BD1 (Homo sapiens (Human), UniProt P25440); experiment: AlphaLisa bromodomain binding assay, BRD2-BD1; conditions: Table 6; read-out: BRD2(1) IC50
Source text: as §1, §2, §3, §4, §5, §6, §7, §8

BRD3-BD1 = BRD3-BD1 (Homo sapiens (Human), UniProt Q15059); experiment: AlphaLisa bromodomain binding assay, BRD3-BD1; conditions: Table 6; read-out: BRD3(1) IC50
Source text: as §1, §2, §3, §4, §5, §6, §7, §8

BRDT-BD1 = BRDT-BD1 (Homo sapiens (Human), UniProt Q58F21); experiment: AlphaLisa bromodomain binding assay, BRDT-BD1; conditions: Table 6; read-out: BRDT(1) IC50
Source text: as §1, §2, §3, §4, §5, §6, §7, §8

JAK2 = JAK2 (Homo sapiens (Human), UniProt O60674); experiment: HTRF kinase assay, JAK2; format: biochemical; conditions: Table 6
JAK3 = JAK3 (Homo sapiens (Human), UniProt P52333); experiment: HTRF kinase assay, JAK3; format: biochemical; conditions: Table 6
Source text: (§9) A kinase assay with HTRF was used to observe JAK activity and calculate the IC50s of compounds disclosed herein. HTRF is an enzymatic assay used to determine the amount of phosphorylated peptide. FRET (Fluorescence Resonance Energy Transfer) is based on the transfer of energy between two fluorophores—a donor and an acceptor—when in close proximity. Molecular interactions between biomolecules can be assessed by coupling each partner with a fluorescent label and by detecting the level of energy transfer. The amount of phopshorylated peptide can be detected using a combination of a Eu 3+Cryptate labeled anti-phospho residue antibody, SA-XL665 and a biotinylated substrate. The signal is proportional to the concentration of phospho-residues.
(§10) Equipment Required • 1. […] Plate centrifuge • 3. Plate shaker • 4. […] Single channel and multi-channel pipettes • 6. Microplate reader (Pherastar)]
as §3, with “arrived. For Ruxolitinib the starting FAC is 1 μM.” for “arrived.”
(§11) • JAK-1: Invtirogen Cat: PR8767C • JAK-2: Invtirogen Cat: PR7820B • JAK-3: Invtirogen Cat: PR7507B • 3. Substrate (synthetic peptide-Biotinylated-N-terminal tag-[…] from Biopeptide) stock and FAC
(§12) • Adenosine 5′-triphosphate disodium salt hydrate: Sigma Cat: A26209 • 5. […] Buffers • Base buffer (for 50 ml)
(§13) • HTRF buffer: • 50 mM Tris-HCl, pH—7.5 • 100 mM NaCl • 0.1% BSA • 0.05% Tween20 • 0.5 mM EDTA
(§14) To a 384 well black-plate: • 1. Add 17 μL of the buffer to each well of the 384-well black plate • 2. […] Add 5 μl of the enzyme to each well of the plate • 4. Add 10 μl of the substrate and ATP mix to all the wells • 5. Cover with plate sealer • 6. […] Incubate at room temperature for 1 hour on shaker • 8. […] Add 37.5 μL of the HTRF mix to these wells. • 9. Incubate the plate at room temperature on shaker for 45 minutes. • 10.
as §8

JAK1 = JAK1 (Homo sapiens (Human), UniProt P23458); experiment: HTRF kinase assay, JAK1; format: biochemical; conditions: Table 6
Source text: as §9, §10
as §3, with “arrived. For Ruxolitinib the starting FAC is 1 μM.” for “arrived.”
as §11, §12, §13, §14, §8

Sequence of BRD3-BD1 (Q15059 34-140): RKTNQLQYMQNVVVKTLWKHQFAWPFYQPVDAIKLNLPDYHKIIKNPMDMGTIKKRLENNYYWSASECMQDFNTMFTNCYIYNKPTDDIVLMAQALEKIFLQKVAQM
Sequence of BRD2-BD1 (P25440 74-180): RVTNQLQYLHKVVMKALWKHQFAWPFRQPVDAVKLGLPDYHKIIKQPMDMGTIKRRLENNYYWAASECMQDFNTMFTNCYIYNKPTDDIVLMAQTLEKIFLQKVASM
Sequence of JAK1 (P23458 whole entry): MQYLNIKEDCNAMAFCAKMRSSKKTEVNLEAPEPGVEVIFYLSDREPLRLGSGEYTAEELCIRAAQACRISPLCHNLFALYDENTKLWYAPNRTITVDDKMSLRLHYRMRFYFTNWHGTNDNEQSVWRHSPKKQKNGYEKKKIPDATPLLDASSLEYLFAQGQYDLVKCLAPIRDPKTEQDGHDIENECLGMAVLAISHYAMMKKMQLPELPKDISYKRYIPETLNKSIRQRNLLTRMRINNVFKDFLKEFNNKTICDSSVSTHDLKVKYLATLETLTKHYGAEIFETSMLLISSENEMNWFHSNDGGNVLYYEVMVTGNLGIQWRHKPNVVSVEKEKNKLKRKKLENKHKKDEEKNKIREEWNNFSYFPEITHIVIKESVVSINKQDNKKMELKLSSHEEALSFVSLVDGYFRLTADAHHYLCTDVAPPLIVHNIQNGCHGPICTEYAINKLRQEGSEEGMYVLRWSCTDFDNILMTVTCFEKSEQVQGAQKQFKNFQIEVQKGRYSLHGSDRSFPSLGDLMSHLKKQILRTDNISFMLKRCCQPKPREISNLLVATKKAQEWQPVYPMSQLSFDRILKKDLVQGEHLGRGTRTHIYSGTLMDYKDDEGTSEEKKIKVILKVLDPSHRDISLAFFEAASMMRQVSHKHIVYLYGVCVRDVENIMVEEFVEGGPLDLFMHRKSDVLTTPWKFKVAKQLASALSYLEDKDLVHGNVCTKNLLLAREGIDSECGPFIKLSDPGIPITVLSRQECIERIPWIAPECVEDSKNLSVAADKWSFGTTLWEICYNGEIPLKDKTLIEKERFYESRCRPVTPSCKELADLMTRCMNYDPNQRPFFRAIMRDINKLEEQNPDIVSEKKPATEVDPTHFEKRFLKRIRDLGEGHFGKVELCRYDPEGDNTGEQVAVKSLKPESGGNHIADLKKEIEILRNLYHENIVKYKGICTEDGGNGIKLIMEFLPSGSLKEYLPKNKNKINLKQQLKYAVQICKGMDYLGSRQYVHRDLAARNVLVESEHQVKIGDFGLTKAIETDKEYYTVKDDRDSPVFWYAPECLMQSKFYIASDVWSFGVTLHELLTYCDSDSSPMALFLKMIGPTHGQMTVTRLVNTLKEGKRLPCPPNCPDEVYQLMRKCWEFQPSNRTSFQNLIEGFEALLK
Sequence of JAK2 (O60674 whole entry): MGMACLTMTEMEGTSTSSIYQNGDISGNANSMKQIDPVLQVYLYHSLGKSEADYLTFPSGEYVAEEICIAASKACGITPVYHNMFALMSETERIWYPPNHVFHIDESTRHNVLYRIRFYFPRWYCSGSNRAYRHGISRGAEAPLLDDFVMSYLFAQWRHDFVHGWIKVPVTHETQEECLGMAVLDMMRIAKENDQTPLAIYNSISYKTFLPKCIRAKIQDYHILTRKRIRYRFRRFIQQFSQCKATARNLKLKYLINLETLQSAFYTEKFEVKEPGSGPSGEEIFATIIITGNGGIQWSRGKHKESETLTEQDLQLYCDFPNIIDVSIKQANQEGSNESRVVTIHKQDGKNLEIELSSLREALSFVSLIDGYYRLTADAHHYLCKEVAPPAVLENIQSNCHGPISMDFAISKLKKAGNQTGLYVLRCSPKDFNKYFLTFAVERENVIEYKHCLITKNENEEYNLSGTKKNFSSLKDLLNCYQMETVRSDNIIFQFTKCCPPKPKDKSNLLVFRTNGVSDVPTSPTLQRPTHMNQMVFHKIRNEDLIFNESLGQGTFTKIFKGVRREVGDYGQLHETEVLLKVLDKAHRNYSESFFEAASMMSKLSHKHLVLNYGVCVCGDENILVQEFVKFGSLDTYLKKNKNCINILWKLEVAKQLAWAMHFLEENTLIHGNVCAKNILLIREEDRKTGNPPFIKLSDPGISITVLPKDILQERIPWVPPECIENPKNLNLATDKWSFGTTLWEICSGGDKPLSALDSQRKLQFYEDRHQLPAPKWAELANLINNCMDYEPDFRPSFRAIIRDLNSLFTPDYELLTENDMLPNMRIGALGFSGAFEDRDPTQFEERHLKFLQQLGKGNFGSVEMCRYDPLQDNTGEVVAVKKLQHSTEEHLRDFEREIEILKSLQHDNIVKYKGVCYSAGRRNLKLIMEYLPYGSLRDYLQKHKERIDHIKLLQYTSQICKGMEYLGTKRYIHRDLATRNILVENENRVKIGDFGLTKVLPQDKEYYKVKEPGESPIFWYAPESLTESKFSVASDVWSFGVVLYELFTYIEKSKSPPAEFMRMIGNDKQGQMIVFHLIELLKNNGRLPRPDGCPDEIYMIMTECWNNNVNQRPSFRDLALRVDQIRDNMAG
Sequence of JAK3 (P52333 whole entry): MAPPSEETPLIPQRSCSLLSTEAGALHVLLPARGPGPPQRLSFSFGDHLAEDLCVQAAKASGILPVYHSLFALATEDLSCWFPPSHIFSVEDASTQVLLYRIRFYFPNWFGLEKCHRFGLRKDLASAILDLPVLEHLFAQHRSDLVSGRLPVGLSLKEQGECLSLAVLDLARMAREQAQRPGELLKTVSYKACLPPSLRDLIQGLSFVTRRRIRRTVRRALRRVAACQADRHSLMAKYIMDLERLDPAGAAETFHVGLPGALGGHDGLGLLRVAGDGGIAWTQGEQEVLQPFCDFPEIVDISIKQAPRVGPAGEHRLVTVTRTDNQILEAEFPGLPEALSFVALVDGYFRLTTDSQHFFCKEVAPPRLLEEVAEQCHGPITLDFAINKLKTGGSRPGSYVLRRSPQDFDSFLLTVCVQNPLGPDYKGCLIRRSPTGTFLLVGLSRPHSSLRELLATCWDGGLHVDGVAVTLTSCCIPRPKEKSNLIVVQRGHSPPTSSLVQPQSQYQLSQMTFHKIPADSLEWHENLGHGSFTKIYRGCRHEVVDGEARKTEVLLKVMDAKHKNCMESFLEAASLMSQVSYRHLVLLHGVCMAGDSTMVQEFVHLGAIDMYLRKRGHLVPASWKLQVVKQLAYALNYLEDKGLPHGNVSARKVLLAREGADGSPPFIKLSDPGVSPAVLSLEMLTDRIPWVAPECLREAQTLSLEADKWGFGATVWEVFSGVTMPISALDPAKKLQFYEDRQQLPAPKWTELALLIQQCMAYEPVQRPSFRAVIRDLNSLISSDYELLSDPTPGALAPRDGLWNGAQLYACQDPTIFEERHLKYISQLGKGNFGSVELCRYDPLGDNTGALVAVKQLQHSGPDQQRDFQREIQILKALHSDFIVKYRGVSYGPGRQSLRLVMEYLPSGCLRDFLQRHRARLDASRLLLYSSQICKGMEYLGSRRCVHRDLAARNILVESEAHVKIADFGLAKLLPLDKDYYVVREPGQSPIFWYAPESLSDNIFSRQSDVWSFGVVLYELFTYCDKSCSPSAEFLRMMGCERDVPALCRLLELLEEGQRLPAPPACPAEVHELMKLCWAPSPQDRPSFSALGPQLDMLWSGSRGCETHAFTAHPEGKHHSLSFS

SMILES | pIC50 (BRD4-BD1) | pIC50 (BRD4-BD2) | pIC50 (BRD2-BD1) | pIC50 (BRD3-BD1) | pIC50 (BRDT-BD1) | pIC50 (JAK2) | pIC50 (JAK3) | pIC50 (JAK1)
CC(C)(C)S(=O)(=O)Nc1cc(-n2ccc3cnc(Nc4ccc(N5CCNCC5)c(F)c4)nc32)ccc1F [drawing 428] | 7.22 | 7.19 | 6.67 | 7.23 | 6.93 | 7.48 | 6.57 | 5.68
CNC1CCN(c2ccc(Nc3ncc4ccn(-c5ccc(F)c(NS(=O)(=O)C(C)(C)C)c5)c4n3)cc2F)CC1 [drawing 457] | 6.82 | 7.06 | 6.38 |  | 6.52 | 7.28 | 6.22 | 5.00
CC(C)(C)S(=O)(=O)Nc1cccc(-c2csc3cnc(Nc4ccc(N5CCNCC5)c(F)c4)nc23)c1 | 6.53 | 6.71 | 6.30 | 6.74 | 6.51 | 8.70 | 7.21 | 6.77
CC(C)(C)S(=O)(=O)Nc1cccc(-n2ccc3cnc(Nc4ccc(C(=O)N5CCNCC5)c(F)c4)nc32)c1 [drawing 463] | 7.09 | 7.27 | 6.43 | 6.91 | 6.71 | 7.55 | 6.48 | 6.23
CC(C)(C)S(=O)(=O)Nc1cc(-n2ccc3cnc(Nc4cc(F)c5c(c4)CC4CNCCN54)nc32)ccc1F (centres unmarked) [drawing 465] | 6.94 | 6.92 | 6.45 | 7.08 | 6.53 | 7.21 | 6.55 | 5.00
CNC1CCN(c2ccc(Nc3ncc4ccn(-c5ccc(F)c(NS(=O)(=O)C(C)(C)C)c5)c4n3)cc2F)CC1 [drawing 456] | 6.91 | 7.07 | 6.44 | 7.01 | 6.73 | 7.41 | 6.76 | 5.82
CN(C)C1CCN(c2ccc(Nc3ncc4ccn(-c5ccc(F)c(NS(=O)(=O)C(C)(C)C)c5)c4n3)cc2F)CC1 [drawing 366] | 7.20 | 7.06 | 6.64 | 7.31 | 6.85 | 7.57 | 6.71 | 5.68
CN(C)C1CCN(C(=O)c2ccc(Nc3ncc4ccn(-c5cccc(NS(=O)(=O)C(C)(C)C)c5)c4n3)cc2F)CC1 | 6.61 | 7.54 | 6.50 | 6.93 | 6.72 | 7.70 | 6.53 | 5.96
CC(C)(C)S(=O)(=O)Nc1cccc(-n2ccc3cnc(Nc4ccc(C(=O)NC5CCNCC5)c(F)c4)nc32)c1 | 6.40 | 7.00 | 6.33 | 7.11 | 6.51 |  | 6.62 | 6.69
Cc1cnc(Nc2ccc(C(=O)NC3CCN(C)CC3)c(F)c2)nc1Nc1ccc2c(c1)N(S(=O)(=O)C(C)(C)C)CC2 | 7.06 | 7.52 | 6.80 | 7.04 | 6.88 | 7.62 |  | 6.00
Cc1cnc(Nc2ccc(OCCN3CCCC3)cc2)nc1Nc1cccc(NS(=O)(=O)C(C)(C)C)c1 | 6.38 | 6.35 | 6.17 | 6.07 | 6.20 | 8.64 | 6.73 | 
Cc1cnc(Nc2ccc(N3CCN(C)CC3)c(F)c2)nc1Nc1ccc2c(c1)N(S(=O)(=O)C(C)(C)C)CC2 [drawing 246] | 7.03 | 6.95 | 6.60 | 6.74 | 6.64 |  | 6.50 | 

Results, then the compound that gave them:

pIC50 (BRD4-BD1) | pIC50 (BRD4-BD2) | pIC50 (BRD2-BD1) | pIC50 (BRD3-BD1) | pIC50 (BRDT-BD1) | pIC50 (JAK2) | pIC50 (JAK3) | pIC50 (JAK1) | SMILES
5.84 | 5.87 | 5.21 | 5.76 | 5.58 | 8.37 | 7.51 |  | CN1CCN(c2ccc(Nc3ncc4ccn(-c5cccc(NS(=O)(=O)C6CC6)c5)c4n3)cc2)CC1 [drawing 297]
6.37 | 6.89 | 6.13 | 6.79 | 6.44 |  | 7.09 | 6.53 | COc1cc(Nc2ncc3ccn(-c4cccc(NS(=O)(=O)C(C)(C)C)c4)c3n2)ccc1N1CCN(C)CC1
6.66 | 6.76 | 6.15 | 6.57 | 6.16 |  | 6.90 | 6.61 | CN1CCN(c2ccc(Nc3ncc4ccn(-c5cccc(NS(=O)(=O)C(C)(C)C)c5)c4n3)cc2)CC1 [drawing 260]
6.36 | 6.31 | 5.54 | 6.19 | 5.95 | 7.74 | 6.90 | 6.37 | CN1CCN(c2ccc(Nc3ncc4ccn(-c5cccc(NS(=O)(=O)C(C)(C)C)c5)c4n3)cc2F)CC1
6.17 | 6.49 | 5.85 | 6.24 | 6.49 |  | 7.00 | 6.33 | CC(C)(C)S(=O)(=O)Nc1cccc(-n2ccc3cnc(Nc4ccc(C5CCNCC5)cc4)nc32)c1
6.82 | 6.60 | 5.80 | 6.30 | 6.20 | 7.92 | 7.17 | 6.38 | CC(C)(C)S(=O)(=O)Nc1cccc(-n2ccc3cnc(Nc4ccc(N5CCNCC5)cc4)nc32)c1 [drawing 283]
6.40 | 6.89 | 6.26 | 6.85 | 6.49 | 8.55 | 6.95 | 6.56 | COc1cc(Nc2ncc3ccn(-c4cccc(NS(=O)(=O)C(C)(C)C)c4)c3n2)ccc1N1CCNCC1
6.45 | 6.14 | 5.72 | 6.08 | 5.60 | 8.60 | 7.16 | 6.61 | CN1CCN(c2ccc(Nc3ncc4ccn(-c5cccc(NS(=O)(=O)C6CC6)c5)c4n3)cc2)CC1 [drawing 278]
6.62 | 6.81 | 6.50 | 7.05 | 6.64 | 7.94 | 6.99 | 7.24 | CN1CCC(NC(=O)c2ccc(Nc3ncc4ccn(-c5cccc(NS(=O)(=O)C(C)(C)C)c5)c4n3)cc2F)CC1
6.93 | 7.14 | 6.35 | 6.44 | 6.64 | 8.40 |  |  | Cc1cnc(Nc2ccc(N3CCN(C)CC3)cc2)nc1Nc1cccc(NS(=O)(=O)C(C)(C)C)c1 [drawing 245]
